Test: Storage of compositions with/without nitrogen-gassing and ascorbic acid, assay and impurities
Format: physicochemical
Conditions: for Assay / Impurities: phosphate buffer
Description: A possible beneficial effect of nitrogen-gassing during manufacturing and storage was assessed. Selected compositions were manufactured by dissolution of API via stirring for 24 h and stored after treatment with/without nitrogen at 25° C. or 6° C. for up to 28 days.
The manufactured batches consisted of phosphate buffer and vitamin E TPGS and were compared to compositions containing ascorbic acid 1%, additionally. API was used at 0.01 wt.-%, 0.02 wt.-% or 0.04 w.-%. The compositions were saturated with API, where 10 mg, 20 mg or 40 mg were dissolved in 100 g buffer containing 0.5 wt.-%, wt.-1% or 2 wt.-% vitamin E TPGS, respectively. The compositions were transferred into polystyrene bottles and stored at 25° C. or 6° C. A part of the compositions was treated with nitrogen during manufacturing and gassed with nitrogen prior to sealing (see FIG. 18). The compositions were tested for assay and purity of API after manufacturing, as well as after 7, 14 and 28 days.

[1] = vitamin E TPGS 1%, no Asc., N2 +, API 0.02%, 25° C., t = 28 d
[2] = vitamin E TPGS 1%, no Asc., N2 +, API 0.02%, t = 0
[3] = vitamin E TPGS 1%, no Asc., N2 −, API 0.02%, 6° C., t = 7 d
[4] = vitamin E TPGS 1%, no Asc., N2 −, API 0.02%, 6° C., t = 14 d
[5] = vitamin E TPGS 1%, no Asc., N2 −, API 0.02%, 6° C., t = 28 d
[6] = vitamin E TPGS 1%, no Asc., N2 −, API 0.02%, 25° C., t = 7 d
[7] = vitamin E TPGS 1%, no Asc., N2 −, API 0.02%, 25° C., t = 14 d
[8] = vitamin E TPGS 1%, no Asc., N2 −, API 0.02%, 25° C., t = 28 d
[9] = vitamin E TPGS 1%, no Asc., N2 −, API 0.02%, t = 0
[10] = vitamin E TPGS 2%, Asc. 1%, N2 +, API 0.04%, 6° C., t = 7 d
[11] = vitamin E TPGS 2%, Asc. 1%, N2 +, API 0.04%, 6° C., t = 14 d
[12] = vitamin E TPGS 2%, Asc. 1%, N2 +, API 0.04%, 6° C., t = 28 d
[13] = vitamin E TPGS 2%, Asc. 1%, N2 +, API 0.04%, 25° C., t = 7 d
[14] = vitamin E TPGS 2%, Asc. 1%, N2 +, API 0.04%, 25° C., t = 14 d
[15] = vitamin E TPGS 2%, Asc. 1%, N2 +, API 0.04%, 25° C., t = 28 d
[16] = vitamin E TPGS 2%, Asc. 1%, N2 +, API 0.04%, t = 0
[17] = vitamin E TPGS 2%, Asc. 1%, N2 −, API 0.04%, 6° C., t = 7 d
[18] = vitamin E TPGS 2%, Asc. 1%, N2 −, API 0.04%, 6° C., t = 14 d
[19] = vitamin E TPGS 2%, Asc. 1%, N2 −, API 0.04%, 6° C., t = 28 d
[20] = vitamin E TPGS 2%, Asc. 1%, N2 −, API 0.04%, 25° C., t = 7 d
[21] = vitamin E TPGS 2%, Asc. 1%, N2 −, API 0.04%, 25° C., t = 14 d
[22] = vitamin E TPGS 2%, Asc. 1%, N2 −, API 0.04%, 25° C., t = 28 d
[23] = vitamin E TPGS 2%, Asc. 1%, N2 −, API 0.04%, t = 0
[24] = vitamin E TPGS 2%, no Asc., N2 +, API 0.04%, 6° C., t = 7 d
[25] = vitamin E TPGS 2%, no Asc., N2 +, API 0.04%, 6° C., t = 14 d
[26] = vitamin E TPGS 2%, no Asc., N2 +, API 0.04%, 6° C., t = 28 d
[27] = vitamin E TPGS 2%, no Asc., N2 +, API 0.04%, 25° C., t = 7 d
[28] = vitamin E TPGS 2%, no Asc., N2 +, API 0.04%, 25° C., t = 14 d
[29] = vitamin E TPGS 2%, no Asc., N2 +, API 0.04%, 25° C., t = 28 d
[30] = vitamin E TPGS 2%, no Asc., N2 +, API 0.04%, t = 0
[31] = vitamin E TPGS 2%, no Asc., N2 −, API 0.04%, 6° C., t = 7 d
[32] = vitamin E TPGS 2%, no Asc., N2 −, API 0.04%, 6° C., t = 14 d
[33] = vitamin E TPGS 2%, no Asc., N2 −, API 0.04%, 6° C., t = 28 d
[34] = vitamin E TPGS 2%, no Asc., N2 −, API 0.04%, 25° C., t = 7 d
[35] = vitamin E TPGS 2%, no Asc., N2 −, API 0.04%, 25° C., t = 14 d
[36] = vitamin E TPGS 2%, no Asc., N2 −, API 0.04%, 25° C., t = 28 d
[37] = vitamin E TPGS 2%, no Asc., N2 −, API 0.04%, t = 0

CN(C)[C@]1(c2cccc(F)c2)CC[C@]2(CC1)c1[nH]c3ccccc3c1CCN2C(=O)/C=C/c1ccccc1 [API, cis-(E)-4-(3-fluorophenyl)-2′,3′,4′,9′-tetrahydro-N,N-dimethyl-2′-(1-oxo-3-phenyl-2-propenyl)-spiro[cyclohexane-1,1′[1H]-pyrido[3,4-b]indol]-4-amine]
Assay [1]: 93.95 µg/mL | Impurities [1]: 0.85 % (a/a) | Assay [2]: 93.15 µg/mL | Impurities [2]: 0.63 % (a/a) | Assay [3]: 92.96 µg/mL | Impurities [3]: 0.66 % (a/a) | Assay [4]: 93.12 µg/mL | Impurities [4]: 0.82 % (a/a) | Assay [5]: 93.21 µg/mL | Impurities [5]: 1.15 % (a/a) | Assay [6]: 93.12 µg/mL | Impurities [6]: 0.74 % (a/a) | Assay [7]: 93.69 µg/mL | Impurities [7]: 1.01 % (a/a) | Assay [8]: 93.67 µg/mL | Impurities [8]: 0.80 % (a/a) | Assay [9]: 92.32 µg/mL | Impurities [9]: 0.63 % (a/a) | Assay [10]: 218.73 µg/mL | Impurities [10]: 0.72 % (a/a) | Assay [11]: 218.92 µg/mL | Impurities [11]: 0.95 % (a/a) | Assay [12]: 219.23 µg/mL | Impurities [12]: 0.68 % (a/a) | Assay [13]: 209.88 µg/mL | Impurities [13]: 1.22 % (a/a) | Assay [14]: 210.66 µg/mL | Impurities [14]: 1.08 % (a/a) | Assay [15]: 190.68 µg/mL | Impurities [15]: 1.54 % (a/a) | Assay [16]: 217.91 µg/mL | Impurities [16]: 0.62 % (a/a) | Assay [17]: 222.15 µg/mL | Impurities [17]: 0.75 % (a/a) | Assay [18]: 226.12 µg/mL | Impurities [18]: 0.85 % (a/a) | Assay [19]: 225.09 µg/mL | Impurities [19]: 0.79 % (a/a) | Assay [20]: 222.30 µg/mL | Impurities [20]: 0.92 % (a/a) | Assay [21]: 213.85 µg/mL | Impurities [21]: 1.58 % (a/a) | Assay [22]: 197.06 µg/mL | Impurities [22]: 1.67 % (a/a) | Assay [23]: 218.96 µg/mL | Impurities [23]: 0.63 % (a/a) | Assay [24]: 216.81 µg/mL | Impurities [24]: 0.53 % (a/a) | Assay [25]: 216.54 µg/mL | Impurities [25]: 0.71 % (a/a) | Assay [26]: 216.93 µg/mL | Impurities [26]: 0.46 % (a/a) | Assay [27]: 215.81 µg/mL | Impurities [27]: 0.57 % (a/a) | Assay [28]: 215.34 µg/mL | Impurities [28]: 0.82 % (a/a) | Assay [29]: 217.45 µg/mL | Impurities [29]: 0.72 % (a/a) | Assay [30]: 214.85 µg/mL | Impurities [30]: 0.58 % (a/a) | Assay [31]: 214.61 µg/mL | Impurities [31]: 0.37 % (a/a) | Assay [32]: 214.30 µg/mL | Impurities [32]: 0.72 % (a/a) | Assay [33]: 214.68 µg/mL | Impurities [33]: 0.49 % (a/a) | Assay [34]: 214.19 µg/mL | Impurities [34]: 0.54 % (a/a) | Assay [35]: 213.44 µg/mL | Impurities [35]: 0.80 % (a/a) | Assay [36]: 215.45 µg/mL | Impurities [36]: 0.67 % (a/a) | Assay [37]: 212.92 µg/mL | Impurities [37]: 0.60 % (a/a) | sum of all impurities (storage temperature of 6° C., all compositions, up to 28 days): below 1 % (a/a)

Source: patent US20180243273A1, “Composition for Intravesical Administration for Treating Bladder Pain” (priority 2017, published 2018)
